Assay results as given in patent EP0970046B1, “N-HYDROXY-2-(ALKYL, ARYL, OR HETEROARYL SULFANYL, SULFINYL OR SULFONYL)-3-SUBSTITUTED ALKYL, ARYL OR HETEROARYLAMIDES AS MATRIX METALLOPROTEINASE INHIBITORS” (Wyeth Holdings Corporation, priority 1997, dated 1998).
Like-named read-outs stand apart in the source and are kept apart here. One block for each compound: values may come before it.

Tests used:
Format in all cases: biochemical
MMP 1 = molecular target: T1, MMP 1 (Homo sapiens, UniProt P03956); experiment: In Vitro Collagenase Assay; conditions: human recombinant fibroblast collagenase; for inhibition at 1 µM: read-out: MMP 1 % inhibition at 1 micromolar, 1 micromolar
T1 construct: human recombinant fibroblast collagenase (truncated, mw= 18,828, WAR, Radnor)
T1 sequence (P03956 100-269 limits assumed): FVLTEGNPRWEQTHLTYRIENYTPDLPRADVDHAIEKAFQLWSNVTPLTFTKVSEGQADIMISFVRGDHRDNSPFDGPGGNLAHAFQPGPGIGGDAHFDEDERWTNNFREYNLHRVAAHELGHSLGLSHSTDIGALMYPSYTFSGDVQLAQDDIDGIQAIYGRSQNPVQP
Protocol: The assay is based on the cleavage of a peptide substrate ((Dnp-Pro-Cha-Gly-Cys(Me)-His-Ala-Lys(NMa)-NH2), Peptide International, Inc.) by collagenase releasing the fluorescent NMa group which is quantitated on the fluorometer. Dnp quenches the NMa fluorescence in the intact substrate. […] Substrate is dissolved in methanol and stored frozen in 1 mM aliquots. […] For the assay, substrate is dissolved in HCBC buffer to a final concentration of 10 µM and collagenase to a final concentration of 5 nM. Compounds are dissolved in methanol, DMSO, or HCBC. The methanol and DMSO are diluted in HCBC to < 1.0%. Compounds are added to the 96 well plate containing enzyme and the reaction is started by the addition of substrate.
The slope of the line is calculated and represents the reaction rate.
The linearity of the reaction rate is confirmed (r^2 >0.85). The mean (x ± sem) of the control rate is calculated and compared for statistical significance (p <0.05) with drug-treated rates using Dunnett's multiple comparison test.

TACE = molecular target: T2, TACE (Homo sapiens, UniProt P78536); experiment: Procedure for Measuring TACE Inhibition
T2 construct: purchased Immunex
In short: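 Single-concentration screen: test compound at 1 µM final, 10-min room-temperature preincubation with 1 µg/mL protease in Tris pH 7.4 buffer containing glycerol. Initial rate from linear fluorescence increase (340/420 nm) over 10 min after adding 100 µM peptidyl substrate; significance versus control rate by Dunnett's test.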

MMP 9 = molecular target: T3, MMP 9 (Homo sapiens, UniProt P14780); experiment: In Vitro Gelatinase Assay; conditions: human neutrophil gelatinase B; for inhibition at 1 µM: read-out: MMP 9 % inhibition at 1 micromolar, 1 micromolar; for IC50: read-out: MMP 9 IC 50
T3 construct: from tissue; host or cells: human neutrophils
Protocol: The assay is based on the cleavage of the thiopeptide substrate ((Ac-Pro-Leu-Gly(2 mercapto-4 methyl-pentanoyl)-Leu-Gly-OEt), Bachem Bioscience) by the enzyme, gelatinase, releasing the substrate product which reacts colorimetrically with DTNB ((5,5'-dithio-bis(2-nitro-benzoic acid)). The enzyme activity is measured by the rate of the color increase. The thiopeptide substrate is made up fresh as a 20 mM stock in 100% DMSO and the DTNB is dissolved in 100% DMSO as a 100 mM stock and stored in dark at room temperature. Both the substrate and DTNB are diluted together to 1 mM with substrate buffer (50 mM HEPES pH 7.5, 5 mM CaCl2) before use. […] The increase in OD405 is plotted and the slope of the line is calculated which represents the reaction rate. The linearity of the reaction rate is confirmed (r^2 >0.85). The mean (x ± sem) of the control rate is calculated and compared for statistical significance (p <0.05) with drug-treated rates using Dunnett's multiple comparison test.

MMP 13 = MMP 13 (Homo sapiens, UniProt P45452); experiment: MMP 13 inhibition (HTS; method not described); conditions: HTS; for inhibition at 0.2 µM: read-out: MMP 13 % inhibition at 0.2 µM (HTS); for inhibition at 0.036 µM: read-out: MMP 13 % inhibition at 36 nM (HTS); for inhibition at 0.036 µM / MMP 13 % inhibition at 36 nM (HTS): 36 nM
[1] = read-out: TACE % inhibition at 1 micromolar
[2] = read-out: TACE % inhibition at 1 µM, 1 µM, Examples 110-168
[3] = read-out: TACE % inhibition at 1 µM, 1 µM, Examples 169-240

T2 sequence (P78536 215-824): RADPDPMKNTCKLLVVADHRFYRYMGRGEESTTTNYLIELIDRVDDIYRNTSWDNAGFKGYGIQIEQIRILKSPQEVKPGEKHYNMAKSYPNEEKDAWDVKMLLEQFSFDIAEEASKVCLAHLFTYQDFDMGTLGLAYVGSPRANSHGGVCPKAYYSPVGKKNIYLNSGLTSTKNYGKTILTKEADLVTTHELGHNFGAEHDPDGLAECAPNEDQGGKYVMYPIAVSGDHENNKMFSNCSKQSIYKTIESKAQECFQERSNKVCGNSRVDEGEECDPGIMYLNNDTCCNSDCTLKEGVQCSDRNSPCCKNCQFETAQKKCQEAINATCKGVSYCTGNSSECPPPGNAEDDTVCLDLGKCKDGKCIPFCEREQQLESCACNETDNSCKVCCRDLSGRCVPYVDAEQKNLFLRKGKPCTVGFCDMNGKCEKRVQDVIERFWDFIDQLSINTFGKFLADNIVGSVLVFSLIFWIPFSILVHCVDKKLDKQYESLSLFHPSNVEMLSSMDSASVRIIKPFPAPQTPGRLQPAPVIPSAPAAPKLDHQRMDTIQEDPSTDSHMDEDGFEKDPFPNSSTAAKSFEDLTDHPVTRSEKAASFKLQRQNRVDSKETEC
T3 sequence (P14780 94-707): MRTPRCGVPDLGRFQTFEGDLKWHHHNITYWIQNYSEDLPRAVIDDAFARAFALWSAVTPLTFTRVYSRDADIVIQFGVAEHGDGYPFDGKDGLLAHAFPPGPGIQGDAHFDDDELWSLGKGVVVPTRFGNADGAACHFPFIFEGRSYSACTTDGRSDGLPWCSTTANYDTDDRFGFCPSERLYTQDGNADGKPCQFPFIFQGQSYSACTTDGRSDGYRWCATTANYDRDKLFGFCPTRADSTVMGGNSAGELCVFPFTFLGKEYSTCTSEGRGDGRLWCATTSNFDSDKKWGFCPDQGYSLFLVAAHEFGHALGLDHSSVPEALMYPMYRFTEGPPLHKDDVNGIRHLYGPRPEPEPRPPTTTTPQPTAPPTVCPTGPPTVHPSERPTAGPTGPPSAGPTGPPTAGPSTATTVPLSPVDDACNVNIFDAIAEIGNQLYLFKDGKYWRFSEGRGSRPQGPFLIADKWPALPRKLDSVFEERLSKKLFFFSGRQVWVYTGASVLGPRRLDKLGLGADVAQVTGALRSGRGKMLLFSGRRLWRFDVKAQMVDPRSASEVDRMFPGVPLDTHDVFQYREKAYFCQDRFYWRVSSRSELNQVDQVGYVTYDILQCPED

Compound: CCCCC(C(=O)NO)S(=O)(=O)c1ccc(OC)cc1 (stereo not drawn) [Example 10, 2-(4-Methoxy-benzenesulfonyl)-hexanoic acid hydroxyamide]
inhibition at 1 µM (MMP 1): 8% | inhibition at 1 µM (TACE; [1]): 54.8%

Compound: COc1ccc(S(=O)(=O)C(C(=O)NO)C(C)C)cc1 (stereo not drawn) [Example 53, N-Hydroxy-2-(4-methoxy-benzenesulfonyl)-3-methyl-butyramide]
inhibition at 1 µM (MMP 9): 27.8% | inhibition at 1 µM (TACE; [1]): 52.6%

Compound: C#CCC(CC#C)(C(=O)NO)S(=O)(=O)c1ccc(OC)cc1 [Example 73, 2-(4-Methoxy-benzenesulfonyl)-2-prop-2-ynyl-pent-4-ynoic acid hydroxyamide]
IC50 (MMP 1; read-out: MMP 1 IC 50): 300 nM | inhibition at 1 µM (TACE; [1]): 20.2%

Compound: N-Hydroxy-3-methyl-2-phenethylsulfinyl-butyramide [Example 117]
TACE % inhibition at 1 µM (TACE; 1 µM, Examples 110-168): 8.1% | MMP 13 % inhibition at 0.2 µM (HTS) (MMP 13): 7%

Compound: N=C(N)NCCCC(C(=O)NO)[S+]([O-])c1cccc(F)c1 (stereo not drawn) [Example 156, 2-(3-Fluorophenylsulfinyl)-5-guanidino-pentanoic acid hydroxyamide]
inhibition at 1 µM (TACE; [2]): -2.09% | inhibition at 0.2 µM (MMP 13): 23%

Compound: CCCCCCCCCCCCC(C(=O)NO)S(=O)(=O)c1ccc(OC)cc1 (stereo not drawn) [Example 11, 2-(4-Methoxy-benzenesulfonyl)-tetradecanoic hydroxyamide]
inhibition at 1 µM (MMP 1): 18.8% | IC50 (TACE; read-out: TACE IC 50): 942 nM

Compound: CCCCCCC(C(=O)NO)S(=O)(=O)CC(=O)Nc1ccc2ccccc2c1 (stereo not drawn) [Example 197, 2-(Naphthalen-2-ylcarbamoylmethanesulfonyl)-octanoic acid hydroxyamide]
inhibition at 1 µM (TACE; [3]): 17.8% | inhibition at 0.036 µM (MMP 13): -33%

Compound: CCCCCCC(C(=O)NO)[S+]([O-])c1ccc(OC)c(OC)c1 (stereo not drawn) [Example 166, 2-(3,4-Dimethoxybenzenesulfinyl)-octanoic acid hydroxyamide]
inhibition at 1 µM (TACE; [2]): 4.16% | inhibition at 0.2 µM (MMP 13): 9%

Compound: CC(C)C(C(=O)NO)[S+]([O-])c1ccc2ccccc2c1 (stereo not drawn) [Example 115, N-Hydroxy-3-methyl-2-(naphthalen-2-ylsulfinyl)-butyramide]
inhibition at 1 µM (TACE; [2]): 0% | inhibition at 0.2 µM (MMP 13): 0%

Compound: 5-Pyridin-2-yl-thiophene-2-sulfonic acid 4(1-hydroxycarbamoyl-heptylsulfinyl)-hydroxy amide [Example 237]
TACE % inhibition at 1 µM (TACE; 1 µM, Examples 169-240): 38.2% | MMP 13 % inhibition at 36 nM (HTS) (MMP 13): 55%

Compound: CCCCCCC(C(=O)NO)[S+]([O-])c1nc(-c2ccccc2)cs1 (stereo not drawn) [Example 179, 2-(4-Phenyl-thiazole-2-sulfinyl)-octanoic acid hydroxyamide]
inhibition at 1 µM (TACE; [3]): 42.7% | inhibition at 0.036 µM (MMP 13): 12%

Compound: CCCCCCC(C(=O)NO)S(=O)(=O)c1ccc(OC)c(OC)c1 (stereo not drawn) [Example 167, 2-(3,4-Dimethoxybenzenesulfonyl)-octanoic acid hydroxyamide]
inhibition at 1 µM (TACE; [2]): 8.96% | inhibition at 0.2 µM (MMP 13): 27%

Compound: CCCCCCC(Sc1ccc(NC2CCCC2)cc1)C(=O)NO (stereo not drawn) [Example 228, 2-(4-Cyclopentylamino-phenylsulfanyl)-octanoic acid hydroxyamide]
inhibition at 1 µM (TACE; [3]): 6.8% | inhibition at 0.036 µM (MMP 13): 37%

Compound: O=C(NO)C(Cc1cnc[nH]1)S(=O)(=O)c1ccc(Cl)cc1 (stereo not drawn) [Example 154, 2-(4-chloro-benzenesulfonyl)-N-hydroxy-3-(3H-imidazol-4-yl)-propionamide]
inhibition at 1 µM (TACE; [2]): 13.1% | inhibition at 0.2 µM (MMP 13): 89%

Compound: CC(C)CCSC(C)C(=O)NO (stereo not drawn) [Example 112, N-Hydroxy-2-(3-methyl-butane-1-sulfanyl)-propionamide]
TACE % inhibition at 1 µM (TACE; 1 µM, Examples 110-168): 33.7% | MMP 13 % inhibition at 0.2 µM (HTS) (MMP 13): 50%

Compound: CCCCCCC(Sc1nnnn1C)C(=O)NO (stereo not drawn) [Example 176, 2-(1-Methyl-1H-tetrazol-5-ylsulfanyl)-octanoic acid hydroxyamide]
inhibition at 1 µM (TACE; [3]): 26.6% | inhibition at 0.036 µM (MMP 13): 6%

Compound: CC(=O)Nc1ccc(S(=O)(=O)C(Cc2ccccc2)C(=O)NO)cc1 (stereo not drawn) [Example 130, 2-(4-Acetylamino-benzenesulfonyl)-N-hydroxy-3-phenyl-propionamide]
inhibition at 1 µM (TACE; [2]): 27.9% | inhibition at 0.2 µM (MMP 13): 28%

Compound: CCCCCCC(SCCc1cnccn1)C(=O)NO (stereo not drawn) [Example 175, 2-(2-Pyrazin-2-yl-ethylsulfanyl)-octanoic acid hydroxyamide]
inhibition at 1 µM (TACE; [3]): 32.9% | inhibition (MMP 13; read-out: MMP 13 % inhibition (HTS)): 37% | inhibition at 0.036 µM (MMP 13): 16%

Compound: CCCCCCC(C(=O)NO)S(=O)(=O)c1ccc(CCC(=O)NO)cc1 (stereo not drawn) [Example 193, 3-[4-(1-Hydroxycarbamoyl-heptylsulfonyl)-phenyl]-propionic acid hydroxy amide]
inhibition at 1 µM (TACE; [3]): 14.9% | inhibition at 0.036 µM (MMP 13): -32%

More lines, now with the values ahead:

IC50 (MMP 9): 10.3 nM
Compound: COc1ccc(S(=O)(=O)C2(C(=O)NO)CCN(Cc3ccc(Br)cc3)CC2)cc1 [Example 90, 1-(4-Bromo-benzyl)-4-(4-methoxy-benzenesulfonyl)-piperidine-4-carboxylic acid hydroxyamide]

inhibition at 1 µM (MMP 9): 88.8% | IC50 (TACE; read-out: TACE IC 50): 764 nM
Compound: CCCCC(Cc1cccnc1)(C(=O)NO)S(=O)(=O)c1ccc(OC)cc1 (stereo not drawn) [Example 70, 2-(4-Methoxy-benzenesulfonyl)-2-pyridin-3-ylmethyl-hexanoic acid hydroxyamide]

TACE % inhibition at 1 µM (TACE; 1 µM, Examples 110-168): 7.8% | MMP 13 % inhibition at 0.2 µM (HTS) (MMP 13): 0%
Compound: CCC(SCC(=O)OC)C(=O)NO (stereo not drawn) [Example 119, (1-Hydroxycarbamoyl-propane-1-sulfanyl)-acetic acid methyl ester]

inhibition at 1 µM (TACE; [3]): 7.3% | inhibition at 0.036 µM (MMP 13): 15%
Compound: CCCCCCC(Sc1ccc(Nc2ccncc2)cc1)C(=O)NO (stereo not drawn) [Example 227, 2-[4-(Pyridin-4-ylamino)-phenylsulfanyl]-octanoic acid hydroxyamide]

inhibition at 1 µM (TACE; [2]): 10.4% | inhibition at 0.2 µM (MMP 13): 25%
Compound: O=C(NO)C(Cc1ccccc1)[S+]([O-])c1ccc(O)cc1 (stereo not drawn) [Example 126, 2-(4-Hydroxybenzenesulfinyl)-N-hydroxy-3-phenyl-propionamide]

inhibition at 1 µM (MMP 1): 30.2% | inhibition at 1 µM (TACE; [1]): 24.9%
Compound: CCCC(CCC)(C(=O)NO)S(=O)(=O)c1ccc(OC)cc1 [Example 59, 2-(4-methoxy-benzenesulfonyl)-2-propyl-pentanoic acid hydroxyamide]

inhibition at 1 µM (TACE; [3]): 33.2% | inhibition at 0.036 µM (MMP 13): -32%
Compound: CCCCCCC(C(=O)NO)S(=O)(=O)c1cccc(C(=O)NO)c1 (stereo not drawn) [Example 192, 3-(1-Hydroxycarbamoyl-heptylsulfonyl)-benzoic acid hydroxyamide]

IC50 (TACE; Examples 169-240, read-out: TACE IC50): 700 nM | inhibition at 1 µM (TACE; [3]): 72.1% | inhibition at 0.036 µM (MMP 13): 29%
Compound: CCCCCCC(Sc1ccc(N2CCCCC2)cc1)C(=O)NO (stereo not drawn) [Example 230, 2-(4-Piperidin-1-yl-phenylsulfanyl)-octanoic acid hydroxyamide]

IC50 (MMP 9): 184 nM | inhibition at 1 µM (TACE; [1]): 23.6%
Compound: COc1ccc(S(=O)(=O)C(Cc2ccccc2)(Cc2ccccc2)C(=O)NO)cc1 [Example 60, 2-benzyl-N-hydroxy-2-(4-methoxy-benzenesulfonyl)-3-phenyl-propionamide]

inhibition at 1 µM (TACE; [2]): 0% | inhibition at 0.2 µM (MMP 13): 0%
Compound: CC(C)C(Sc1ccc2ccccc2c1)C(=O)NO (stereo not drawn) [Example 114, N-hydroxy-3-methyl-2-(naphthalen-2-ylsulfanyl)-butyramide]

inhibition at 1 µM (TACE; [3]): 85.5% | inhibition at 0.036 µM (MMP 13): -14%
Compound: CCCCCCC(SCC1NC(=O)NC1=O)C(=O)NO (stereo not drawn) [Example 187, 2-(2,5-Dioxo-imidazolidin-4-ylmethylsulfanyl)-octanoic acid hydroxyamide]

TACE % inhibition at 1 µM (TACE; 1 µM, Examples 169-240): 45.9% | MMP 13 % inhibition at 36 nM (HTS) (MMP 13): 54%
Compound: 3-Bromo-2-chloro-thiophene-2-sulfonic acid 4-(1-hydroxycarbamoyl-heptylsulfonyl)-hydroxyamide [Example 239]
